From US9241917B2, “Facially amphiphilic polymers and oligomers and uses thereof” (priority 2003, dated 2016)
In brackets after ≈: the same amount, converted by molar mass.

How the values were obtained:
Heparin = assay: Clotting time of activated plasma in the presence of heparin; type: biochemical; design: unit not given here; conditions: heparin 1 unit, 0.2 ug/ml
[1] = tested on: low molecular weight heparin (LMWH, Innohep); assay: Clotting time of activated plasma in the presence of LMWH; type: biochemical; conditions: for Clotting time of activated plasma: LMWH 4.6 ug/ml
human erythrocytes = assay: Hemolysis of human erythrocytes; type: cell-based
Method: For example, cytotoxic selectivity can be assessed by determining the hemolytic activity of the polymer or oligomer. Hemolytic activity assays are performed by measuring the degree of hemolysis of human erythrocytes following incubation in the presence of the polymer or oligomer and determining HC50 values. […] See also Javadpour, M. M., et al., J. Med. Chem. 39:3107-3113 (1996).
The toxicity to mammalian cells of polymers and oligomers of the present invention was evaluated using human blood obtained from healthy volunteers, anticoagulated with 0.1 volume of sodium citrate. The general procedure is as follows: Washed erythrocytes are suspended in either HEPES buffer, pH 7.4, containing 1 mM Mg2^+ and 1 mM Ca2^+ or in heated and unheated autologous serum obtained from clotted blood. Red cell agglutination is evaluated microscopically and red cell lysis is evaluated by measuring the amount of released hemoglobin spectroscopically. The effect of polymers on platelet function is studied by adding increasing concentrations of polymer to citrate-anticoagulated platelet-rich plasma. Platelet aggregation and secretion are then evaluated in a lumi-aggregometer (Chrono-Log).
One distinction is that the studies with Pmx10073 were done in whole blood. […] The concentrations of compound that are cytotoxic for mammalian cells were determined and compared to efficacious concentrations. […]

[2] = tested on: Candida albicans ATCC 10231; assay: Antifungal growth assay (MIC100), Candida albicans; type: cell-based; conditions: ATCC10231, 20 h
Method: (§1) Several different genera of fungi were tested for their sensitivity to a set of salicylamide and arylamide oligomers. Both non-filamentous (yeast) and filamentous fungi were tested and specific fungi that are associated with various types of human infections were chosen for the screen (Table 4). […] All growth assays were done in a total of 1 ml volumes and growth was assessed by turbidity measurements. Other assay conditions are described in Table 6.

[3] = tested on: Aspergillus fumigatus ATCC 1028; assay: Antifungal growth assay (MIC100), Aspergillus fumigatus; type: cell-based; conditions: ATCC1028, 48 h, complete inhibition of growth, 2 days, 28° C.
Method: as §1

[4] = tested on: Cryptococcus neoformans ATCC 24067; assay: Antifungal growth assay (MIC100), Cryptococcus neoformans; type: cell-based; conditions: ATCC24067, 48 h, complete inhibition of growth, 2 days, 37° C.
Method: as §1

[5] = tested on: Trichophyton mentagrophytes ATCC 9533; assay: Antifungal growth assay (MIC100), Trichophyton mentagrophytes; type: cell-based; conditions: ATCC9533, 72 h, complete inhibition of growth, 3 days, 28° C.
Method: as §1

[6] = tested on: Trichophyton rubrum ATCC 10218; assay: Antifungal growth assay (MIC100), Trichophyton rubrum; type: cell-based; conditions: ATCC10218, 72 h, complete inhibition of growth, 3 days, 28° C.
Method: as §1

E. coli (ATCC25922) = assay: Growth assay (MIC100), E. coli control organism; type: cell-based; conditions: Escherichia coli, ATCC25922, 20 h
Method: as §1

E. coli = assay: Antimicrobial assay, minimal inhibitory concentration against E. coli

Structure (SMILES)	Clotting time, Average (Heparin; oligomer 4.4 ug/ml)	Clotting time, Trial #1 (Heparin; oligomer 4.4 ug/ml)	Clotting time, Trial #2 (Heparin; oligomer 4.4 ug/ml)	Clotting time, Trial #3 (Heparin; oligomer 4.4 ug/ml)	Clotting time, Trial #4 (Heparin; oligomer 4.4 ug/ml)	Clotting time, Average (Heparin; oligomer 44.4 ug/ml)	Clotting time, Trial #1 (Heparin; oligomer 44.4 ug/ml)	Clotting time, Trial #2 (Heparin; oligomer 44.4 ug/ml)	Clotting time, Trial #3 (Heparin; oligomer 44.4 ug/ml)	Clotting time, Trial #4 (Heparin; oligomer 44.4 ug/ml)	Clotting time of activated plasma ([1]; oligomer 14.8 ug/ml)	Clotting time of activated plasma ([1]; oligomer 0.4 ug/ml)	further results
CC(C)CC(NC(=O)c1cc(NC(=O)C(CC(C)C)NC(=O)c2cc(NC(=O)C(CC(C)C)NC(=O)c3cc(NC(=O)C(CC(C)C)NC(=O)c4cc(NC(=O)C(CC(C)C)NC(=O)c5cc(N)ccc5OCCNC(=N)N)ccc4OCCNC(=N)N)ccc3OCCNC(=N)N)ccc2OCCNC(=N)N)ccc1OCCNC(=N)N)C(N)=O (stereo not drawn) [#10]	>400	113.8	317.6	>450	>450	38.7	40.7	35.6	36.7	33.7	97.6	–	–
CC(C)(C)c1cc2c(OCC(=O)NCCCCCN)c(c1)Cc1cc(C(C)(C)C)cc(c1OCC(=O)NCCCCCN)Cc1cc(C(C)(C)C)cc(c1OCC(=O)NCCCCCN)Cc1cc(C(C)(C)C)cc(c1OCC(=O)NCCCCCN)C2 [#18]	57.6	57.6	–	–	–	–	–	–	–	–	48.6	140.1	–
CC(C)(C)c1cc(NC(=O)c2cc(OCCN)cc(C(=O)Nc3cc(C(C)(C)C)cc(NC(=O)[C@H](N)CCCNC(=N)N)c3SCCN)c2)c(SCCN)c(NC(=O)[C@H](N)CCCNC(=N)N)c1 [Compound 12]	–	–	–	–	–	–	–	–	–	–	–	–	Concentration lysing red cells (no lysis up to) (human erythrocytes): > 800 µM
C[C@@H]1[C@H](O)[C@@H](C)/C=C/C=C/C=C/C=C/C=C/C=C/C=C/[C@H](O[C@@H]2O[C@H](C)[C@@H](O)[C@H](N)[C@@H]2O)C[C@@H]2O[C@](O)(C[C@@H](O)C[C@@H](O)[C@H](O)CC[C@@H](O)C[C@@H](O)CC(=O)O[C@H]1C)C[C@H](O)[C@H]2C(=O)O [Amphotericin]	–	–	–	–	–	–	–	–	–	–	–	–	MIC [2]: 0.1 µg/mL (≈ 0.108 µM); MIC [3]: 1 µg/mL (≈ 1.08 µM); MIC [4]: 0.1 µg/mL (≈ 0.108 µM); MIC [5]: 0.3 µg/mL (≈ 0.325 µM); MIC [6]: 1 µg/mL (≈ 1.08 µM); MIC (E. coli (ATCC25922)): 3 µg/mL (≈ 3.25 µM)
CC(C)CC(N)C(=O)Nc1cc(C(C)(C)C)cc(NC(=O)c2cccc(C(=O)Nc3cc(C(C)(C)C)cc(NC(=O)C(N)CC(C)C)c3SCCN)c2)c1SCCN (stereo not drawn) [#13]	92.4	81.2	88.2	94.1	106.2	–	–	–	–	–	189.2	–	–
CC(C)CCOc1cc(OCCC(C)C)c(C(=O)NNC(=O)c2cc(C(=O)NCCN(C)C)c(OCCCCCN)cc2OCCCCCN)cc1C(=O)NNC(=O)c1cc(C(=O)NCCN(C)C)c(OCCCCCN)cc1OCCCCCN [Compound 19]	–	–	–	–	–	–	–	–	–	–	–	–	Antagonism of the delay in plasma clotting caused by LMWH, in words ([1]; oligomer 4.4 ug/ml, LMWH (Innohep) 4.6 ug/ml final concentration): significantly antagonized the delay in plasma clotting
COc1ccc(NC(=O)C(CCCNC(=N)N)NC(=O)c2cc(NC(=O)C(CCCNC(=N)N)NC(=O)c3cc(NC(=O)C(CCCNC(=N)N)NC(=O)c4cc(NC(=O)C(CCCNC(=N)N)NC(=O)c5cc(N)ccc5OC)ccc4OC)ccc3OC)ccc2OC)cc1C(=O)NC(CCCNC(=N)N)C(N)=O (stereo not drawn) [#3]	80.3	72.2	75.1	81.2	92.6	36.8	38.7	34.1	38.6	35.6	109.2	–	–
CC(C)CCOc1cc(OCCC(C)C)c(C(=O)NNC(=O)c2cc(C(=O)NCCN(C)C)c(OCCCCCN)cc2OCCCCCN)cc1C(=O)NNC(=O)c1cc(C(=O)NCCN(C)C)c(OCCCCCN)cc1OCCCCCN [#19]	27.9	29.0	26.7	–	–	–	–	–	–	–	34	64.2	Clotting time, Average (Heparin; oligomer 0.4 ug/ml): >400; Clotting time, Trial #1 (Heparin; oligomer 0.4 ug/ml): >400; Clotting time, Average (Heparin; oligomer 1.5 ug/ml): 40.2; Clotting time, Trial #1 (Heparin; oligomer 1.5 ug/ml): 43.2; Clotting time, Trial #2 (Heparin; oligomer 1.5 ug/ml): 37.1; Clotting time of activated plasma ([1]; oligomer 1.5 ug/ml): 232.8
CC(C)CCOc1ccc(NC(=O)C(CCCNC(=N)N)NC(=O)c2cc(NC(=O)C(CCCNC(=N)N)NC(=O)c3cc(NC(=O)C(CCCNC(=N)N)NC(=O)c4cc(NC(=O)C(CCCNC(=N)N)NC(=O)c5cc(N)ccc5OCCC(C)C)ccc4OCCC(C)C)ccc3OCCC(C)C)ccc2OCCC(C)C)cc1C(=O)NC(CCCNC(=N)N)C(N)=O (stereo not drawn) [#4]	169.8	175.5	153.8	157.1	192.6	29.2	31.6	29.6	29.6	26.1	44.9	137.7	–
CC(C)(C)c1cc(NC(=O)c2cccc(C(=O)Nc3cc(C(C)(C)C)cc(NC(=O)[C@@H](N)CCCNC(=N)N)c3SCCN)c2)c(SCCN)c(NC(=O)[C@@H](N)CCCNC(=N)N)c1 [Compound 6]	–	–	–	–	–	–	–	–	–	–	–	–	HC50 RBC (human erythrocytes; Table 1, arylamide series, one hour incubation, 50% hemoglobin release): 715 µg/mL; MIC (E. coli; Escherichia coli, read-out: MIC E. coli): 6 µg/mL (≈ 6.51 µM); Antimicrobial activity against E. coli, in words (E. coli; text on Tables 1 and 2): highly potent and selective
